Measurements reported in the supplement of paper PMC6045584.
± gives the standard deviation of the averaged measurements.

Key:
BI-2536 = compound: CC[C@@H]1C(=O)N(C)c2cnc(Nc3ccc(C(=O)NC4CCN(C)CC4)cc3OC)nc2N1C1CCCC1 [BI-2536]; assay: surviving fraction relative to DMSO-only wells; higher = less growth inhibition; conditions: exposure time: 5 days
Procedure, shortened: (§1)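 Surviving fraction was calculated by normalising CellTiter-Glo luminescence to the median of DMSO-only wells. Tumour cell lines in log phase were seeded in 384-well plates at 250–500 cells per well, and 24 hours later were exposed continuously for five days to inhibitors at 0.5, 1, 5, 10, 50, 100, 500 and 1000 nM.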

TIOGUANINE = compound: Nc1nc2[nH]cnc2c(=S)[nH]1 [TIOGUANINE]; assay: as above; conditions: exposure time: 5 days
Procedure, shortened: as §1

Row | Test System | surviving fraction (BI-2536; 0.5 nM) | surviving fraction (BI-2536; 1 nM) | surviving fraction (BI-2536; 5 nM) | surviving fraction (BI-2536; 10 nM) | surviving fraction (BI-2536; 50 nM) | surviving fraction (BI-2536; 100 nM) | surviving fraction (BI-2536; 500 nM) | surviving fraction (BI-2536; 1000 nM) | surviving fraction (TIOGUANINE; 0.5 nM) | surviving fraction (TIOGUANINE; 1 nM) | surviving fraction (TIOGUANINE; 5 nM) | surviving fraction (TIOGUANINE; 10 nM) | surviving fraction (TIOGUANINE; 50 nM) | surviving fraction (TIOGUANINE; 100 nM) | surviving fraction (TIOGUANINE; 500 nM) | surviving fraction (TIOGUANINE; 1000 nM)
1 | MG63 BONE | 1.057 ± 0.0095 | 1.02 ± 0.053 | 0.884 ± 0.049 | 0.0403 ± 0.0059 | 0.033 ± 0.0017 | 0.023 ± 0.0017 | 0.029 ± 0.001 | 0.03 ± 0.001 | 0.974 ± 0.035 | 0.97 ± 0.015 | 1.01 ± 0.014 | 0.991 ± 0.007 | 1.02 ± 0.026 | 1.03 ± 0.026 | 0.989 ± 0.0069 | 0.958 ± 0.03
2 | JIMT1 BREAST | 0.941 ± 0.041 | 0.737 ± 0.015 | 0.2183 ± 0.0013 | 0.181 ± 0.0095 | 0.18 ± 0.017 | 0.158 ± 0.02 | 0.143 ± 0.0061 | 0.0883 ± 0.0045 | 0.966 ± 0.018 | 0.975 ± 0.023 | 0.984 ± 0.034 | 0.9947 ± 0.0086 | 1.05 ± 0.015 | 1.03 ± 0.025 | 0.9495 ± 0.0077 | 0.912 ± 0.0067
3 | BT549 BREAST | 0.905 ± 0.14 | 0.923 ± 0.052 | 0.229 ± 0.021 | 0.132 ± 0.038 | 0.0863 ± 0.0081 | 0.0867 ± 0.011 | 0.0667 ± 0.011 | 0.0373 ± 0.0093 | 1.04 ± 0.17 | 1.05 ± 0.22 | 1.09 ± 0.12 | 1.12 ± 0.11 | 1.17 ± 0.14 | 0.917 ± 0.35 | 0.86 ± 0.42 | 0.996 ± 0.24
4 | HMLE3 BREAST | 1.04 ± 0.14 | 1.09 ± 0.1 | 0.819 ± 0.076 | 0.216 ± 0.0056 | 0.0467 ± 0.014 | 0.0453 ± 0.015 | 0.0567 ± 0.011 | 0.063 ± 0.007 | 0.914 ± 0.068 | 0.902 ± 0.015 | 0.95 ± 0.028 | 0.974 ± 0.019 | 0.97 ± 0.1 | 0.945 ± 0.072 | 0.905 ± 0.049 | 0.851 ± 0.09
5 | SG43 HEADNECK | 0.902 ± 0.22 | 1.04 ± 0.23 | 0.734 ± 0.16 | 0.715 ± 0.099 | 0.454 ± 0.079 | 0.323 ± 0.12 | 0.17 ± 0.051 | 0.0543 ± 0.014 | 1 ± 0.073 | 0.986 ± 0.23 | 0.684 ± 0.14 | 0.988 ± 0.083 | 0.778 ± 0.18 | 0.895 ± 0.15 | 0.91 ± 0.1 | 1.11 ± 0.13
6 | HELA CERVIX | 1.05 ± 0.05 | 1.048 ± 0.0063 | 0.243 ± 0.048 | 0.033 ± 0.00087 | 0.0492 ± 0.0016 | 0.0475 ± 0.0049 | 0.11 ± 0.0041 | 0.133 ± 0.013 | 0.998 ± 0.074 | 1.03 ± 0.053 | 0.994 ± 0.015 | 0.997 ± 0.055 | 1.06 ± 0.024 | 1.14 ± 0.019 | 1.14 ± 0.059 | 1.21 ± 0.056
7 | SG27 HEADNECK | 0.99 ± 0.077 | 1.16 ± 0.1 | 1.04 ± 0.06 | 1.03 ± 0.098 | 1 ± 0.076 | 1 ± 0.1 | 0.391 ± 0.11 | 0.212 ± 0.068 | 0.982 ± 0.054 | 0.995 ± 0.12 | 1.04 ± 0.091 | 0.984 ± 0.13 | 1 ± 0.089 | 1.02 ± 0.12 | 1.11 ± 0.024 | 0.953 ± 0.13
8 | CAL72 BONE | 1 ± 0.019 | 0.742 ± 0.12 | 0.2 ± 0.021 | 0.147 ± 0.033 | 0.12 ± 0.026 | 0.0987 ± 0.015 | 0.104 ± 0.019 | 0.0927 ± 0.009 | 1.08 ± 0.029 | 1.07 ± 0.027 | 1.09 ± 0.073 | 1.1 ± 0.056 | 1.14 ± 0.034 | 1.124 ± 0.0085 | 1.13 ± 0.029 | 1.13 ± 0.043
9 | SG31 HEADNECK | 1.09 ± 0.11 | 1.27 ± 0.057 | 0.77 ± 0.099 | 0.603 ± 0.03 | 0.531 ± 0.031 | 0.573 ± 0.029 | 0.49 ± 0.034 | 0.438 ± 0.064 | 0.97 ± 0.023 | 1 ± 0.085 | 1 ± 0.16 | 1.01 ± 0.18 | 0.986 ± 0.073 | 0.871 ± 0.1 | 1.2 ± 0.25 | 0.928 ± 0.17
10 | MDAMB157 BREAST | 0.912 ± 0.041 | 0.62 ± 0.19 | 0.0967 ± 0.0025 | 0.0937 ± 0.013 | 0.093 ± 0.0095 | 0.157 ± 0.033 | 0.224 ± 0.013 | 0.255 ± 0.0076 | 0.867 ± 0.072 | 0.857 ± 0.052 | 0.958 ± 0.013 | 0.921 ± 0.071 | 0.986 ± 0.078 | 0.961 ± 0.085 | 0.88 ± 0.055 | 0.89 ± 0.039
